Experimental data: ChEMBL document CHEMBL1153023, “Lathyrane diterpenes from Euphorbia lathyris as modulators of multidrug resistance and their crystal structures” (Bioorg Med Chem, 2009); call rule not given here

Experiments:
MCF7/ADM = assay: Reversal of p-gp-mediated multidrug-resistance in human MCF7/ADM cells assessed as enhancement intensity at 10 ug/mL after 48 hrs by SRB assay relative to adriamycin; format: cell-based
MCF7 = assay: Cytotoxicity against human MCF7 cells after 48 hrs by SRB assay; format: cell-based; settings: mcf7, 48 h
MCF/ADR = assay: Reversal of P-gp-mediated multidrug resistance in human MCF/ADR cells assessed as reversal fold after 48 hrs by SRB assay relative to control; format: cell-based
[1] = Octanol-water partition coefficient, log P of the compound; format: physicochemical
[2] = Reversal of p-gp-mediated multidrug-resistance in human MCF7/ADM cells after 48 hrs by SRB assay; format: cell-based

| SMILES | Activity (MCF7/ADM) | Activity (MCF7) | Ratio IC50 (MCF/ADR) | logP [1] | IC50 [2] |
| --- | --- | --- | --- | --- | --- |
| CC(=O)O[C@@H]1[C@H]2[C@@H](OC(=O)Cc3ccccc3)[C@@H](C)C[C@]2(OC(C)=O)C(=O)/C(C)=C/[C@@H]2[C@H](CC[C@]13CO3)C2(C)C | 22% | Not Active | 4.4 | 5.6 | 246 µg/mL |
| C=C1[C@@H](OC(=O)c2ccccc2)C[C@H]2[C@@H](/C=C(\C)C(=O)[C@@]3(OC(C)=O)C[C@H](C)[C@H](OC(=O)c4ccccc4)[C@@H]3[C@H]1OC(C)=O)C2(C)C | 34% | Not Active | 12.8 | 7.9 | 84.3 µg/mL |
| C=C1CC[C@H]2[C@@H](/C=C(\C)C(=O)[C@@]3(OC(C)=O)C[C@H](C)[C@H](OC(=O)c4ccccc4)[C@@H]3[C@H]1OC(C)=O)C2(C)C | 25% |  | 6.57 | 6.4 | 165 µg/mL |
| COc1ccc(CCN(C)CCCC(C#N)(c2ccc(OC)c(OC)c2)C(C)C)cc1OC (configuration not stated) [VERAPAMIL] | 19% |  | 2.95 |  | 367 µg/mL |
| CC(=O)OC/C1=C/[C@H]2[C@@H](OC(=O)/C=C/c3ccccc3)[C@@H](C)C[C@]2(OC(C)=O)C(=O)/C(C)=C/[C@@H]2[C@H](CC1)C2(C)C (relative stereo) | 54% | Not Active | 10.3 | 5.8 | 105 µg/mL |
| CC(=O)OC/C1=C\C[C@H]2[C@@H](/C=C(\C)C(=O)[C@@]3(OC(C)=O)C[C@H](C)[C@H](OC(=O)c4ccccc4)[C@@H]3[C@H]1OC(C)=O)C2(C)C (relative stereo) | 15% | Not Active | 4.36 | 6.1 | 248 µg/mL |
